In data set [1] the target is EGFR(WT) (Homo sapiens, UniProt P00533). Kind of data set: ELISA kinase activity detection, EGFR(WT). Type of data set: biochemical. The settings on record: ELISA-based EGFR-TK assay, ATP 5 μM; mean ± SD of at least two determinations. The procedure:
(§1) Tyrosine kinase: EGFR(WT) • EGFR^T790M/L858R(LR/TM) • EGFR^T790M/L858R/[…](LR/TM/CS)
(§2) ELISA Kinase Activity Detection
Enzyme-Linked Immunosorbent Assay (ELISA) was used to detect the ability of a kinase to phosphorylate a substrate and calculate the inhibitory effect of a compound on the kinase activity. […]
(§3) The main steps of ELISA are listed as follows: the substrate Poly(Glu, Tyr) 4:1 was diluted with potassium ion-free PBS to 2.5 μg/well, incubated at 37° C. for 12-16 h to coat the ELISA plate for use. An ATP solution (final concentration of 5 μM) diluted with a reaction buffer (50 mM HEPES pH 7.4, 20 mM MgCl2, 0.1 mM MnCl2, 0.2 mM Na3VO4, 1 mM DTT) was added to each well. A compound or solvent control was added, and then a kinase was added to start the reaction at 37° C. in a shaker for 1 h. The plate was washed for three times with T-PBS, and 100 μL of antibody PY99 (diluted in T-PBS containing 5 mg/mL BSA, 1: 500) was added, and incubated in a shaker at 37° C. for 0.5 h. After washing the plate with T-PBS, 100 μL of horseradish peroxidase-labeled goat anti-mouse IgG (diluted in T-PBS containing 5 mg/mL BSA, 1: 2000) was added, and incubated in a shaker at 37° C. for 0.5 h. After washing the plate again, a developing liquid containing 0.03% H2O2, 2 mg/mL OPD (0.1 mol/L, in citrate buffer solution pH 5.4) was added at 100 μL/well, and incubated for 1-10 min at 25° C. in darkness. 50 μL/well of 2 M H2SO4 was added to quench the reaction, and read with a wavelength-tunable microplate reader (SpectraMax Plus384, Molecular Devices) at a wavelength of 490 nm. The IC50 value was obtained from the inhibition curve.
Background: An ELISA detects its analyte on a solid surface through an enzyme-linked reagent.

The target of data set [2] is T1, EGFR L858R/T790M/C797S (LR/TM/CS) (Homo sapiens, UniProt P00533, C797S/L858R/T790M).
T1 construct: purchased BPS Bioscience
Nature of the data set: ELISA kinase activity detection, EGFR triple mutant. Type of data set: biochemical. The settings on record: ELISA-based EGFR-TK assay, ATP 5 μM, mean ± SD. The method, then:
as §1, §2
Enzyme-Linked Immunosorbent Assay (ELISA) was used to detect the ability of a kinase to phosphorylate a substrate and calculate the inhibitory effect of a compound on the kinase activity. The used kinase was EGFR L858R/T790M/C797S (purchased from BPS Bioscience).
as §3

The target in data set [3] is EGFR L858R/T790M (LR/TM) (Homo sapiens, UniProt P00533, L858R/T790M). Kind of data set: ELISA kinase activity detection, EGFR double mutant. Type of data set: biochemical. Particulars: ELISA-based EGFR-TK assay, ATP 5 μM, mean ± SD.

Molecules are shown by their SMILES.

T1 sequence (P00533 25-1210 T790M/C797S/L858R): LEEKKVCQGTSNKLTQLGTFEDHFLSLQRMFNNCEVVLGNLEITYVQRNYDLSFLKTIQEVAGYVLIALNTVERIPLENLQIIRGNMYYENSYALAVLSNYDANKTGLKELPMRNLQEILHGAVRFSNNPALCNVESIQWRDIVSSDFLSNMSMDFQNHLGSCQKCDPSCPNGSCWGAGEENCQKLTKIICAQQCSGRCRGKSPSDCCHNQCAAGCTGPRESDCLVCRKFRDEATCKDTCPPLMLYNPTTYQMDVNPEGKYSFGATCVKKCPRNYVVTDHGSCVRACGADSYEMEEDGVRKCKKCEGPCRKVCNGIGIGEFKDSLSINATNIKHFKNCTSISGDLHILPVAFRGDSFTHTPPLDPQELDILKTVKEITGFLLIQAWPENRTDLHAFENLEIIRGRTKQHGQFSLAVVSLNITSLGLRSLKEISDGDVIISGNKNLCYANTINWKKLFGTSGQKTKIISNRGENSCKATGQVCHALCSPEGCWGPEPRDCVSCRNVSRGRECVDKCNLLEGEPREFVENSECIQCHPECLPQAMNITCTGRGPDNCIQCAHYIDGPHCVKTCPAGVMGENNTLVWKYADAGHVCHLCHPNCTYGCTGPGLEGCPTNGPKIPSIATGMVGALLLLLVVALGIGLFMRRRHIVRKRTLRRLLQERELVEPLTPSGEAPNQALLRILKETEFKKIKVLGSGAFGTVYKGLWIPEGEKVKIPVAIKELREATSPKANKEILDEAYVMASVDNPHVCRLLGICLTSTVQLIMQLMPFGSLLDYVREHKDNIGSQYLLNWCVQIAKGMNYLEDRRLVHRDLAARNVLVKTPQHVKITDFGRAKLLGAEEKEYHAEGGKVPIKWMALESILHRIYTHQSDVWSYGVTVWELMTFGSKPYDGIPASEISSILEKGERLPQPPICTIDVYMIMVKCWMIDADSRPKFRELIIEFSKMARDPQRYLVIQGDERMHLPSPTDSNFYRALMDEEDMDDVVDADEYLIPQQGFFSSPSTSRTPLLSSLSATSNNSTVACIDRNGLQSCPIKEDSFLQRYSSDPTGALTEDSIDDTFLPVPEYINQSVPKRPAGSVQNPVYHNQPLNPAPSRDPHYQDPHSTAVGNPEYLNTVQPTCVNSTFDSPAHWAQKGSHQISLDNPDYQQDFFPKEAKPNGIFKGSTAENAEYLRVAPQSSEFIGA
Sequence of EGFR(WT) (P00533 25-1210): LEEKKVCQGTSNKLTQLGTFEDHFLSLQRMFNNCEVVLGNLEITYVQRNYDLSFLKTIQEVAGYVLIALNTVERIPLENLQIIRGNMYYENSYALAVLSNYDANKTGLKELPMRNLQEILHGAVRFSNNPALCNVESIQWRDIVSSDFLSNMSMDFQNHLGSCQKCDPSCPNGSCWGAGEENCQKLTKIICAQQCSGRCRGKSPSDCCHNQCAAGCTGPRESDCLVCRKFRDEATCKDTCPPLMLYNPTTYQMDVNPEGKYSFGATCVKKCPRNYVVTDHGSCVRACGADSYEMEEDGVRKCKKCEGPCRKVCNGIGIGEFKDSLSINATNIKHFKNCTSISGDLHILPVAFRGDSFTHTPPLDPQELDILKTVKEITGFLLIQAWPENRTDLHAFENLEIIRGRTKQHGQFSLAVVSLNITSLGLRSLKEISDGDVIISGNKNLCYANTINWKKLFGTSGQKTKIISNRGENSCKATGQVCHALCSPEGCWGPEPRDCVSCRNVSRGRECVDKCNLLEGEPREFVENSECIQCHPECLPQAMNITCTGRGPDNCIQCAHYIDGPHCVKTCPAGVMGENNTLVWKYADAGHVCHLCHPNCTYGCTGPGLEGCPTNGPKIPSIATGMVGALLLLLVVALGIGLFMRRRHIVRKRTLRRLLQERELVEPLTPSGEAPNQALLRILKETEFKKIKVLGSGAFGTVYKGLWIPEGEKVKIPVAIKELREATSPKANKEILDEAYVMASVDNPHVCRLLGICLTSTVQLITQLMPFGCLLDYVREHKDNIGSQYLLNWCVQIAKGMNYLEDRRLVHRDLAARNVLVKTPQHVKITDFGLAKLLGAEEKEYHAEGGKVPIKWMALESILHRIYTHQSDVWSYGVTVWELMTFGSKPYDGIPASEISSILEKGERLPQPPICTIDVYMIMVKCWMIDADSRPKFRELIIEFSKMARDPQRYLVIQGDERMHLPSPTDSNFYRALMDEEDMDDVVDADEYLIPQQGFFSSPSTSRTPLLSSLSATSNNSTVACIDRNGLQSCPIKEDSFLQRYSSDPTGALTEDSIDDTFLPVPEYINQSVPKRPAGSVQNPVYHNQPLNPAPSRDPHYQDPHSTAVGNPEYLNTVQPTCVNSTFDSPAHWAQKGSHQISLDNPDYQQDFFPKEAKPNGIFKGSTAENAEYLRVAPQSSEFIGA
Sequence of EGFR L858R/T790M (LR/TM) (P00533 25-1210 T790M/L858R): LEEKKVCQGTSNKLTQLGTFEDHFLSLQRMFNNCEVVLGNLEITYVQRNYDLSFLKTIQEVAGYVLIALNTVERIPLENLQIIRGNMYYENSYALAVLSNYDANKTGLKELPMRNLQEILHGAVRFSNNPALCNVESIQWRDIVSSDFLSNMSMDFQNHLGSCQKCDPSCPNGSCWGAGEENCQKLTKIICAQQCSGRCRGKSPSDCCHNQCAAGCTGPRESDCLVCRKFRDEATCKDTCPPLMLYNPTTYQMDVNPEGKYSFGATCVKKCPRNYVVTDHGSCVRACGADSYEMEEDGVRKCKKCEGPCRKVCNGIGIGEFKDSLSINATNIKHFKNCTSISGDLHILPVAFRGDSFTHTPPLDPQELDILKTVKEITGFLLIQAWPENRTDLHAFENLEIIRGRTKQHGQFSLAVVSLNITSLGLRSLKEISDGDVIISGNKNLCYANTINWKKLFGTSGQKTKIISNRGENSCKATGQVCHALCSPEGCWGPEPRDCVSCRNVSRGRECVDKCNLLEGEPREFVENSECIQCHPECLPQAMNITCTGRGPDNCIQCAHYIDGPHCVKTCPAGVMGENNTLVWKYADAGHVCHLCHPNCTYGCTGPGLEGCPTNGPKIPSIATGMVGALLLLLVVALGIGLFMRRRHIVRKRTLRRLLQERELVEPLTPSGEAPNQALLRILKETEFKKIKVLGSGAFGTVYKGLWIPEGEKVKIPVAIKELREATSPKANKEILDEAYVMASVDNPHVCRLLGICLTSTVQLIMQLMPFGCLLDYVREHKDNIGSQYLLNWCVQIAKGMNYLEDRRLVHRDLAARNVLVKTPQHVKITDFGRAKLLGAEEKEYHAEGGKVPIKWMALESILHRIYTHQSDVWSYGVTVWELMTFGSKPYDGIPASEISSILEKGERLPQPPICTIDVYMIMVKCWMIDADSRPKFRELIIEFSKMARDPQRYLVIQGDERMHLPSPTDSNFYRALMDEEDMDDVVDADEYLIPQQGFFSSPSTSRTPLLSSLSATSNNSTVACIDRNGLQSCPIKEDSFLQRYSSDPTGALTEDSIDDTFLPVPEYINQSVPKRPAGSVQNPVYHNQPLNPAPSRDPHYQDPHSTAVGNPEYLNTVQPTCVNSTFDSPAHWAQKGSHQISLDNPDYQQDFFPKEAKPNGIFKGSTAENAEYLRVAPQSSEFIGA

One may read the IC50 as the point on the concentration scale where inhibition reaches its midpoint. Read a low IC50 as higher potency. For orientation: melting point means the temperature, or range, at which the solid turns liquid. With `COc1cc2c(Nc3ccc(NC(=O)C(c4ccccc4)C(C)C)cc3F)ncnc2cc1OCC1CCN(C)CC1` (stereo not shown) [Example 10, N-(3-Fluoro-4-((6-methoxy-7-((1-methylpiperidin-4-yl)methoxy)quinazolin-4-yl)amino)phenyl)-3-methyl-2-phenylbutanamide], the melting point lay within 196 to 196.2 °C. Besides, in data set [1], the IC50 was found to be 23.1 ± 8.3 nM. This molecule had an IC50 in data set [2] of 3190 ± 2500 nM. In data set [3], the IC50 was found to be 2030 ± 755 nM.

In turn, `COc1cc2c(Nc3ccc(NC(=O)C(c4ccccc4)c4ccccc4)cc3F)ncnc2cc1OCC1CCN(C)CC1` [Example 11, N-(3-fluoro-4-((6-methoxy-7-((1-methylpiperidin-4-yl)methoxy)quinazolin-4-yl)amino)phenyl)-2,2-diphenyl] returned a melting point of 257 to 257.2 °C. Half-maximal inhibition in data set [1] (IC50) required 5.6 ± 3.3 nM. The same molecule yielded an IC50 in data set [2] of 1300 ± 308 nM. The same molecule displayed a 50% inhibitory concentration (IC50) in data set [3] of 1000 ± 435 nM.

Regarding `COc1cc2c(Nc3ccccc3P(C)(C)=O)ncnc2cc1OCC1CCN(C)CC1` [Example 13, (2-((6-methoxy-7-((1-methylpiperidin-4-yl)methoxy)quinazolin-4-yl)amino)phenyl)dimethyl phosphine oxide], the melting point was in the range of 150.5 to 150.8 °C. Also, in data set [1], the half-inhibitory concentration (IC50) worked out at 7340 ± 2520 nM. Besides, the concentration for half-maximal inhibition (IC50) in data set [2] is > 10000 nM. In data set [3], the IC50 is > 10000 nM.

`CN1CCC(COc2ccc3c(Nc4ccccc4P(C)(C)=O)ncnc3c2)CC1` [Example 14] returned a melting point of 170.7 to 172.4 °C. Besides, half-maximal inhibition in data set [1] (IC50) required 2710 ± 80.2 nM. Inhibition in data set [2] was half-maximal at 9510 ± 526 nM (IC50). Besides, the half-maximal inhibitory concentration (IC50) in data set [3] is > 10000 nM.
